What is called residual activity is the signal under treatment as a percentage of the control signal.

From publication PMC6458995, “MAP4K4 Inhibition Promotes Survival of Human Stem Cell-Derived Cardiomyocytes and Reduces Infarct Size In Vivo” (Cell Stem Cell, 2019) come the findings set out here.

Structures are written as SMILES.

What all share (assay): Dundee kinase panel
What all share (assay type): biochemical
Holding throughout (details): for remaining activity at 1 µM: read-out: residual activity

In one assay the target is T1, BTK (Homo sapiens, UniProt Q06187).
T1 construct: lines 1-140) and Reaction Biology
As to the method: (§1) Compounds were screened at 1 μM. For key hits, pIC50 values were then determined by HTRF as above. […] Stability in mouse and human liver microsomes was determined by Cyprotex.

In another assay the target is T2, CDK2-Cyclin A (Homo sapiens, UniProt P24941).
T2 construct: lines 1-140) and Reaction Biology
As to the method:
as §1

The target of the next assay is T3, ERK1 (Homo sapiens, UniProt P27361).
T3 construct: lines 1-140) and Reaction Biology
How it is done:
as §1

Another assay deals with T4, LKB1 (Homo sapiens, UniProt Q15831).
T4 construct: lines 1-140) and Reaction Biology
T4 sequence (Q15831 1-433): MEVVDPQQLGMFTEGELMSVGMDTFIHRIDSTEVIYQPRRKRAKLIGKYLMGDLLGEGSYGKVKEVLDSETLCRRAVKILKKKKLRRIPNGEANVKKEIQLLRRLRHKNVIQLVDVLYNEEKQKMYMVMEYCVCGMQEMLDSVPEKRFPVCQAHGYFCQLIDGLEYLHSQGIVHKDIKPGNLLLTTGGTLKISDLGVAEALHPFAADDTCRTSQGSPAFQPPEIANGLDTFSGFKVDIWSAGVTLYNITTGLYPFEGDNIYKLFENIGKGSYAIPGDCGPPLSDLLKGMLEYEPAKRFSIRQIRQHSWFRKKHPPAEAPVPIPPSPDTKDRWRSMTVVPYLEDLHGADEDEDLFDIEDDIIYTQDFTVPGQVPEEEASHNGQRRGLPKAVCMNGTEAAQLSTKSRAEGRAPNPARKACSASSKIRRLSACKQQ
T4 sequence (Q7RTN6 1-431 partner): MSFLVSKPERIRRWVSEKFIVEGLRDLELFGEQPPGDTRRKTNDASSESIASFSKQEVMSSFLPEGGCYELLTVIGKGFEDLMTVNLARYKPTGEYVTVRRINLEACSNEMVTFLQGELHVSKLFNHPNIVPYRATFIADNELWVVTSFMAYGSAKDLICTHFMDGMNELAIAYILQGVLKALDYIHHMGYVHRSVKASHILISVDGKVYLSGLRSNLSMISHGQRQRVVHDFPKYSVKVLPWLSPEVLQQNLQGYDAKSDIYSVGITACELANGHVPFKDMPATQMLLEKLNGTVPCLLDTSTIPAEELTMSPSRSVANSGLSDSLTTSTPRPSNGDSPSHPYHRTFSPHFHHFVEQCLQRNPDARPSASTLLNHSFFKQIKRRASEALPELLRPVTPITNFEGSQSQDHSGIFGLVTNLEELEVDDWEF
T4 sequence (Q9Y376 1-341 partner): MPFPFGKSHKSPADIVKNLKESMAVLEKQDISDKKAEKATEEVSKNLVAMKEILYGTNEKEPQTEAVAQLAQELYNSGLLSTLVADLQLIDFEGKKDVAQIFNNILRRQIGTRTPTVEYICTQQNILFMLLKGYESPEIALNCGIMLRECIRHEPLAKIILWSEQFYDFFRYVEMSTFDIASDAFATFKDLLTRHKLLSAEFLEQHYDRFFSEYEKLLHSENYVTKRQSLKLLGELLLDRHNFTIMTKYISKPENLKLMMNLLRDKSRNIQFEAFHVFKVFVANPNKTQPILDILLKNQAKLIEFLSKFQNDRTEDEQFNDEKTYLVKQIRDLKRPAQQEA
How it is done:
as §1

Another assay concerns the target T5, MKK1 (Homo sapiens, UniProt Q02750).
T5 construct: lines 1-140) and Reaction Biology
As to the method:
as §1

Another assay addresses T6, SGK1 (Homo sapiens, UniProt O00141).
T6 construct: lines 1-140) and Reaction Biology
T6 sequence (O00141 1-431): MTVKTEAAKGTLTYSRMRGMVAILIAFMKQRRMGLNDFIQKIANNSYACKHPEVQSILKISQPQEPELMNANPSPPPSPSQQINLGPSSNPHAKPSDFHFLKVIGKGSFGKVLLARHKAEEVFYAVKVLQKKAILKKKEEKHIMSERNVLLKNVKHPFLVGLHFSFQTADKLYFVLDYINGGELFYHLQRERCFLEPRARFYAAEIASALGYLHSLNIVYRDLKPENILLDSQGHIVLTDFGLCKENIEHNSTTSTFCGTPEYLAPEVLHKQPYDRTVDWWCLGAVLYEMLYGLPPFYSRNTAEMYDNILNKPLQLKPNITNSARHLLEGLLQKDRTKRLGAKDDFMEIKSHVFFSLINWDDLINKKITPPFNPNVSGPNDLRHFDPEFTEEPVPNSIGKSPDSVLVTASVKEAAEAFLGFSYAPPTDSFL
How it is done: as §1

A further assay has as its target T7, TAO1 (Homo sapiens, UniProt Q7L7X3).
T7 construct: lines 1-140) and Reaction Biology
T7 sequence (Q7L7X3 1-1001): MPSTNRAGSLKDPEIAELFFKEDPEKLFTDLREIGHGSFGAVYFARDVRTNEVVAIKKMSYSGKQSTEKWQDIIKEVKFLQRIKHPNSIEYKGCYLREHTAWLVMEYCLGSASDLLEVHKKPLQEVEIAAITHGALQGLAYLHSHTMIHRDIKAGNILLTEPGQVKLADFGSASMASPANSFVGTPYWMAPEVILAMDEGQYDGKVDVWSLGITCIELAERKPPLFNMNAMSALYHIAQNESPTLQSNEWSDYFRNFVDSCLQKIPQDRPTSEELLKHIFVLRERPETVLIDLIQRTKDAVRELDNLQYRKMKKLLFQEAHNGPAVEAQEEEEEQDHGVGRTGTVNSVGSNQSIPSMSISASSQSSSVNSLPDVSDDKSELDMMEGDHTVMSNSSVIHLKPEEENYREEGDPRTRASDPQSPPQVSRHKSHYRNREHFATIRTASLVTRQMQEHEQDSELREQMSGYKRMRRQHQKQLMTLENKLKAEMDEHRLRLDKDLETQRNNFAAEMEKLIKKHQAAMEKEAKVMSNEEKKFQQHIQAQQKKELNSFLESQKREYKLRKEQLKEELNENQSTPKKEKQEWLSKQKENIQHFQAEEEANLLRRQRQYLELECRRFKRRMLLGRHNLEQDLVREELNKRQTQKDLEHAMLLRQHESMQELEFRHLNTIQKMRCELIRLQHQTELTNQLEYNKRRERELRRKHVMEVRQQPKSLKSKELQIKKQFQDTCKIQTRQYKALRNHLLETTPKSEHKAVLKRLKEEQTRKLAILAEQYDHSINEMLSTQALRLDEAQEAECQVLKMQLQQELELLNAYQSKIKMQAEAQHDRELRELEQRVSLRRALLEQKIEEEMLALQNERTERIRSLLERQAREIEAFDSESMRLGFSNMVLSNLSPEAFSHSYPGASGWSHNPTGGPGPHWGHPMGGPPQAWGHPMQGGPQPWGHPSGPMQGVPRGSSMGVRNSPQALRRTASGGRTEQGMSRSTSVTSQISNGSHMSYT
As to the method: as §1

T1 sequence (Q06187 whole entry): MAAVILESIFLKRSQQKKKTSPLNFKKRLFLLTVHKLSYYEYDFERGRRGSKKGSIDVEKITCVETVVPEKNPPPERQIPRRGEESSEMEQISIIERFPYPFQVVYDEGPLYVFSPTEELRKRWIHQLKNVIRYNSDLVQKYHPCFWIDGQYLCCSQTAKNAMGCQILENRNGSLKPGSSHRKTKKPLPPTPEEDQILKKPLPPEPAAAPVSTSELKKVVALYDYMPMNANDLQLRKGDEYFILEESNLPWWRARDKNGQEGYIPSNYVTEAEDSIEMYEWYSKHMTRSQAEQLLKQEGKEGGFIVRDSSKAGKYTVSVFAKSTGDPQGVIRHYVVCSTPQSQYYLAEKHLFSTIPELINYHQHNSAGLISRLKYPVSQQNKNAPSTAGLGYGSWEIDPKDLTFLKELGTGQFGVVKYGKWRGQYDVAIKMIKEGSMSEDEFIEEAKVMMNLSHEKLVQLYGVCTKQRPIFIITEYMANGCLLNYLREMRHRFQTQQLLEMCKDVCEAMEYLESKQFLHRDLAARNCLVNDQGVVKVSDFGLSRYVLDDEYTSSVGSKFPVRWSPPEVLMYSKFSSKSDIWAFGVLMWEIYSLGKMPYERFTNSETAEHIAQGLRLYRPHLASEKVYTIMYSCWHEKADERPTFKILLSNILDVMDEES
T5 sequence (Q02750 whole entry): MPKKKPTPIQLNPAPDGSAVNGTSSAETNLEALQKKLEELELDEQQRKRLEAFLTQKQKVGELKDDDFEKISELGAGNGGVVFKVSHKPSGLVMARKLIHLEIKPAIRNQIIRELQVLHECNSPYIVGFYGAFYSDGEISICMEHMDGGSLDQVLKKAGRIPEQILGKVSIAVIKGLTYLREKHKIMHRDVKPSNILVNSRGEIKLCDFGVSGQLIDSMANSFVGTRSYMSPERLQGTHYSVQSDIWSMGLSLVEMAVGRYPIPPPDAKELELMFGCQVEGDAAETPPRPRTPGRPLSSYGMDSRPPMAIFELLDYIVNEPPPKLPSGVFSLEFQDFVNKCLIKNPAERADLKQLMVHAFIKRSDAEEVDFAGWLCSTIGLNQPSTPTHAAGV
T3 sequence (P27361 whole entry): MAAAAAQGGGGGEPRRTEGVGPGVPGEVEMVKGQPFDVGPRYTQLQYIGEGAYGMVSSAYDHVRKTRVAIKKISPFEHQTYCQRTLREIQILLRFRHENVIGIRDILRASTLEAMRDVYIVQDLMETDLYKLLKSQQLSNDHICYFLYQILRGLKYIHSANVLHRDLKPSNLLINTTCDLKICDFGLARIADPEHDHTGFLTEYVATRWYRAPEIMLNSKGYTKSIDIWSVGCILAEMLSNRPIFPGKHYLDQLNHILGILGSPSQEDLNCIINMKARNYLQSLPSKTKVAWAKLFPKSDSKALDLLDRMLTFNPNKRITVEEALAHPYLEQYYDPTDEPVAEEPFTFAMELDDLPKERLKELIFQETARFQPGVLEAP

As to `COCCOc1ccc(-c2cn(-c3ccccc3)c3nc[nH]c(=O)c23)cc1` [DMX-5804, 5-[4-(2-methoxy-ethoxy)-phenyl]-7-phenyl-3,7-dihydro-pyrrolo[2,3-d]pyrimidin-4-one], the remaining activity at 1 µM came out at 118% on BTK; 104% on CDK2-Cyclin A; 107% on ERK1; 105% at LKB1; 113% on MKK1; 104% at SGK1. On TAO1, the remaining activity at 1 µM was 120%.
Regarding `Oc1ncnc2c1c(-c1ccccc1)cn2-c1ccccc1` [F1386-0303, 5,7-diphenyl-7H-pyrrolo[2,3-d]pyrimidin-4-ol], the remaining activity at 1 µM at BTK came out at 130%; on CDK2-Cyclin A it was 84%; at ERK1, 124%; at LKB1, 96%; on MKK1 it was 101%; at SGK1 it was 101%. The remaining activity at 1 µM on TAO1 is 98%.
Turning to `Nc1ncc(C(=O)NC2CN(C(=O)C3CC3)C2)c2ccc(-c3cccc(F)c3)nc12` [GNE-495], the residual activity is 82% at BTK (1 μM); 55% at CDK2-Cyclin A (1 μM); 143% on ERK1 (1 μM); 87% on LKB1 (1 μM); 56% at MKK1 (1 μM); 55% on SGK1 (1 μM). In addition, the residual activity at TAO1 (1 μM) is 75%.
Consider `O=C1Nc2ccc(I)cc2/C1=C/c1cc(Br)c(O)c(Br)c1` [GW5074], for which the remaining activity at 1 µM was 75% at BTK; 111% on CDK2-Cyclin A; 87% at ERK1; 68% at LKB1; 80% on MKK1; 91% on SGK1. The remaining activity at 1 µM on TAO1 turned out to be 96%.
With `O=C1Cc2c([nH]c3ccc(Br)cc23)-c2ccccc2N1` [Kenpaullone], the remaining activity at 1 µM on BTK stood at 64%; at CDK2-Cyclin A, 93%; at ERK1, 78%; on LKB1, 89%; at MKK1 it was 97%; on SGK1, 101%. Also, the remaining activity at 1 µM on TAO1 worked out at 93%.
